Reference: patent US20260137662A1, “CD11B AGONISTS FOR TREATMENT OF AUTOIMMUNE DISEASE” (Rush University Medical Center, priority 2022, published 2026)

Test system: NFkB pathway
Experiment: Gene expression in RAW 264.7 myeloid cells with NFkB inhibitor
Assay type: cell-based, murine
Conditions: presence of NFkB inhibitor; LPS-treated cells, 8 hours
Procedure: FIG. 6A illustrates gene expression of PLAUR in myeloid cells treated with NFkB inhibitor BMS 345541 and then subsequently treated for 8 hours with LA 1(20 uM), LPS (12.5, 25, 50, 100, or 250 ng/ml), or LPS and LA1 co-treatment (L+L).
FIG. 6B illustrates gene expression of NLRP3 in myeloid cells treated with NFkB inhibitor BMS 345541 and then subsequently treated for 8 hours with LA 1(20 uM), LPS (12.5, 25, 50, 100, or 250 ng/ml), or LPS and LA1 co-treatment (L+L).
FIG. 6C illustrates gene expression of and IL-6 in myeloid cells treated with NFkB inhibitor BMS 345541 and then subsequently treated for 8 hours with LA 1(20 uM), LPS (12.5, 25, 50, 100, or 250 ng/ml), or LPS and LA1 co-treatment (L+L).
In order to determine potential molecular mechanisms resulting in uPAR expression, the association between uPAR/suPAR and other inflammatory cytokines and the NFkB pathway were investigated. uPAR expression levels in RAW 264.7 myeloid cells were evaluated in the absence or presence of a known NFkB inhibitor, BMS 345541.

Cc1ccc2nc(NCCN)c3ncc(C)n3c2c1 [BMS 345541]
expression levels of IL-6: reduced | expression levels of NLRP3: reduced | relative gene expression of PLAUR (uPAR): reduced relative gene expression
